The numbers were not newly measured in US20220040193A1, “FORMULATIONS OF PHOSPHOINOSITIDE 3-KINASE INHIBITORS” (VENTHERA, INC., priority 2020, published 2022), which cites them from elsewhere.

As for `Oc1cccc(-c2nc(N3CCOCC3)c3sccc3n2)c1` [MTPP, 3-(4-morpholinothieno(3,2-d)pyrimidin-2-yl)phenol], the PI3K inhibiting activity entry with PI3K was “excellent PI3K inhibiting activity”. Besides, the “cancer cell growth inhibiting activity” value with cancer cell was “cancer cell growth inhibiting activity”.
